Measured values reported in patent US9738614B2, “Malignant and non-malignant disease treatment with Ras antagonists” (PISCES THERAPEUTICS, LLC, priority 2011, dated 2017).

Legend:
PANC-1 cells = test: Cell proliferation assay for PANC-1 cells; assay type: cell-based; conditions: 12.5 μM, media with 5% serum, five days (FIG. 3)
Description: (§1) The adult glioblastoma cell line U87MG was obtained from a commercial source (ATCC). The pancreatic cancer cell line PANC-1 was obtained from a local laboratory (Indiana University). Both lines were grown in Iscove's Modified Dulbecco's Medium with 10% fetal bovine serum (FBS) at 37° C. and 5% CO2.
(§2) Compounds (1), (2), (3), (4), and (5), which are shown and described above, were each dissolved in ethanol at 10 mg/mL. A measured portion of the solution was pipetted into a microcentrifuge tube. Then, the ethanol was evaporated from each tube using a SpeedVac®, leaving just the compound in the tube. The appropriate amount of chloroform was added to the tube to produce a 0.1 M concentration. The solutions were placed on ice and in the dark so they could be pipetted into 10- and 20-μL aliquots in 1.5 mL microcentrifuge tubes. The solutions were frozen at […] with lids closed tightly and the tubes covered with foil.
(§3) Prior to treating the cells, a tube of the test compound was removed from the freezer and placed under a biosafety hood to evaporate the chloroform in the tubes. Then, dimethyl sulfoxide (DMSO) was added to the tubes to make the correct concentration to use in the experiment (0.1 M stock). The tubes were vortexed, and warm media with 10% FBS was slowly added to make the correct working concentrations to be used in the experiment. The compounds were directly added to each well for treatment.
The cells were treated in triplicate with standard concentrations of 6.25, 12.5, 25, 50, and 100 μM of each test compound (3) and (5) and the reference compound FTS and, when needed, concentrations of 0.625, 1.25, 2.5 and 5.0 μM in media with 5% serum for five days. Then, the cells were stained with trypan blue, and the cell number per each well was determined. Again, the IC50 values were calculated using Multiplex Reader-Fit software made by MiraiBio Group, Hitachi Solutions America, Ltd. In a typical experiment, the control wells averaged 32,500 cells. The results are presented graphically in FIG. 3. […]

U87MG cells = test: Cell proliferation assay for U87MG cells; assay type: cell-based
Description: as §1, §2, §3
U87MG cells were seeded in a 24-well plate, 5000 cells per well, and incubated overnight at 37° C. in serum-free media. The next day they were treated in triplicate with 50 and 100 μM of each test compound (1), (2), (3), (4), and (5) and the reference compound FTS. After five days, the cells were trypsinized (0.5%), stained with trypan blue, and counted to determine the cell number per well. The half-maximal inhibitory concentration (IC50) values were calculated using Multiplex Reader-Fit software made by MiraiBio Group, Hitachi Solutions America, Ltd. In a typical experiment, the control wells averaged 138,000 cells. The results are presented graphically in FIG. 1. The test compounds at 50 μM allowed the following U87MG cell proliferation compared to control: compound (1)—37%, compound (2)—18%, compound (3)—10%, compound (4)—40%, and compound (5)—0%. The reference compound FTS at 50 μM allowed 7% cell proliferation compared to control.
To further evaluate compounds (3) and (5), which inhibited the most cell growth in FIG. 1, more U87MG cells were seeded in 24-well plates, 5000 cells per well, and incubated overnight at 37° C. in serum-free media. The cells were treated the next morning in media with 5% serum in triplicate with standard concentrations of 6.25, 12.5, 25, and 50 μM of each test compound (3) and (5) and the reference compound FTS. After five days of treatment, the cells were trypsinized (0.5%) and then stained with trypan blue. Cells were counted to determine the number of cells per well. Again, the IC50 values were calculated using Multiplex Reader-Fit software made by MiraiBio Group, Hitachi Solutions America, Ltd. In a typical experiment, the control wells averaged 56,000 cells. The results are presented graphically in FIG. 2. The test compounds at 25 μM allowed the following U87MG cell proliferation compared to control: compound (3)—69% and compound (5)—0%. The reference compound FTS at 25 μM allowed over 50% cell proliferation compared to control.
Since the doses of compound (5) used above killed all of the cells, the dose curve was set up again using even lower doses of compound (5). U87MG cells were seeded in 24-well plates, 5000 cells per well, and incubated overnight at 37° C. in serum-free media. The cells were treated in triplicate with 6.25, 12.5, 25, and 50 μM of the reference compound FTS and 0.3125, 0.625, 1.25, 2.5, and 5.0 μM of the test compound (5) in media with 5% serum for five days. Then, the cells were trypsinized (0.5%) and stained with trypan blue, and the cell number per each well was determined. […]

[1] = test system: primary human lung fibroblasts; test: Inhibition of TGF-β induced myofibroblast formation (α-SMA Western blot); assay type: cell-based; conditions: TGF-β 72 hours, concentrations below 25 μM
Description: Primary human lung fibroblasts were stimulated for 72 hours with transforming growth factor beta (TGF-β) to induce their differentiation to an alpha smooth muscle actin (α-SMA) expressing activated myofibroblasts cell fate. […] The activin like kinase receptor (ALK5) inhibitor SB431542 was used as a positive control. Myofibroblast formation was evaluated by Western blot by examining changes in α-SMA levels.

[2] = test system: NF-1-/- S100+ Schwann cells; test: NF-1-/- Schwann cell proliferation (visible spectroscopy); assay type: cell-based, mouse; conditions: 25-50 μM, 24 hrs after PDGF stimulation (FIG. 5B)
Description: (§4) A purified population of NF-1−/−S 100+Schwann cells isolated from a plexiform neurofibroma in a genetically engineered mouse (Zhu, Y. et al., Science, May 2002, 3; 296(5569)):920-922) were stimulated with a maximum stimulating concentration of platelet derived growth factor (PDGF) in the presence of a control or compound (3) at concentrations of 2.5-5 μM. Ras-GTP was measured 3 minutes subsequently using Western blot analysis. […] In parallel experiments, Schwann cell proliferation was measured using visible spectroscopy 24 hrs after PDGF stimulation in the presence of a control or compound (3) at concentrations of 25-50 μM. […] Each asterisk in FIG. 5B represents a statistical difference relative to the control using analysis of variance. (Yang, Feng-Chun, et. al. J Clin Invest 2003, 112(12), 1851-1861; Yang, Feng-Chun, et. al. Hum Mol Genet 2006, 15(11), 1921-1930).

[3] = test system: hematopoietic progenitor cells (cord blood low density cells); test: Human hematopoietic progenitor cell toxicity (colony assay); assay type: cell-based; conditions: 12 days; 25 and 2.5 μM for compound (3), 2.5 and 0.25 μM for compound (5)
Description: Cord blood low density cells were plated at 1×10^5 cells per plate in 1 mL complete methylcellulose in the presence of each test compound (3) and (5) and incubated for 12 days in a CO2 incubator. Colony-forming unit-granulocyte (CFU-GM), burst-forming unit-erythroid (BFU-E), and mixed colonies were counted under an inverted microscope. […] The test compounds were not toxic to the hematopoietic progenitor cells.

Ras-GTP = Ras-GTP Western blot in PDGF-stimulated NF-1-/- Schwann cells; assay type: cell-based, mouse; conditions: 2.5-5 μM, 3 minutes after PDGF stimulation (FIG. 5A)
Description: as §4

[4] = 25 μM, media with 5% serum, five days (FIG. 2)
[5] = 50 μM, five days, trypan blue cell count (FIG. 1)

SMILES | PANC-1 cell proliferation compared to control (PANC-1 cells) | U87MG cell proliferation compared to control (U87MG cells; 6.25 μM, media with 5% serum, five days (FIG. 2)) | U87MG cell proliferation compared to control (U87MG cells; [4]) | U87MG cell proliferation compared to control (U87MG cells; [5]) [%] | IC50 (U87MG cells; Homo sapiens, U-87 MG, value quoted in Example 7, read-out: IC50 as determined on the U87MG cells) [µM] | inhibition of myofibroblast formation [1] | Schwann cell proliferation relative to the control [2] | toxicity to hematopoietic progenitor cells (CFU-GM, BFU-E, mixed colonies) [3] | level of Ras-GTP relative to the control (Ras-GTP)
CC(C)=CCC/C(C)=C/CC/C(C)=C/CSc1ccccc1C(=O)O [FTS, farnesyl-thiosalicylic acid, reference compound] | over 80% | over 80% | over 50% | 7 |  |  |  |  | 
CC(C)=CCC/C(C)=C/CC/C(C)=C/CSc1ccccc1-c1nn[nH]n1 [compound (1), 5-(2-{[(2E,6E)-3,7,11-trimethyldodeca-2,6,10-trien-1-yl]sulfanyl}phenyl)-2H-1,2,3,4-tetrazole] |  |  |  | 37 |  |  |  |  | 
CC(C)=CCC/C(C)=C/CC/C(C)=C/CSc1ccsc1C(=O)O [compound (3), 3-{[(2E,6E)-3,7,11-trimethyldodeca-2,6,10-trien-1-yl]sulfanyl}thiophene-2-carboxylic acid] | 41% |  | 69% | 10 | 25 | did not inhibit | reduced | not toxic | significantly reduced
CCOC(=O)c1nnsc1SC/C=C(\C)CC/C=C(\C)CCC=C(C)C [compound (4), Ethyl 5-{[(2E,6E)-3,7,11-trimethyldodeca-2,6,10-trien-1-yl]sulfanyl}-1,2,3-thiadiazole-4-carboxylate] |  |  |  | 40 |  |  |  |  | 
